The test system of experiment [1] is rat fat cells. The experiment in a line: Inhibition of free fatty acid release from epinephrine-stimulated rat fat cells. The conditions noted are these: 10^-5 M epinephrine, 3 hours at 37° C., VOSO4 is 1.00 mM, other values are relative to it, read-out: IC50 (mM), concentration that inhibits 50% fatty acid release. Format: cell-based. The protocol:
According to the method described in Biol. Pharm.
In silicon-processed vials, the fat cells isolated in the above (2.5×10^6 cells/ml) were pre-incubated in 1 ml of KRB buffer that contains a varying concentration (10^−4, 5×10^−4, 10^−3 M) of VOSO4 different Zn(II) complexes of the invention and 20 mg/ml of BSA, at 37° C. for 0.5 hours. Next, 10^−5 M of epinephrine was added to the reaction mixture, and the resulting solution was incubated at 37° C. for 3 hours. The reaction was stopped by cooling the mixture with ice, and the mixture was centrifuged at 3000 rpm for 10 minutes. The free fatty acid (FFA) level in the extracellular solution was measured with an NEFA kit, and IC50 of the test compound was calculated.

Experiment [2] relates to KK-A^y mice. The experiment is described as follows: Glucose tolerance (glucose load) test in KK-A^y mice after 14-day administration. Type of experiment: in vivo. The conditions noted are these: for effect in glucose load test compared with Zn(2-AM-py)2Cl2 or Zn(Car)2Cl2 / diabetic condition in glucose load test: FIG. 21 and FIG. 22, 14-day intraperitoneal administration; for diabetic condition in glucose load test: vs diabetic control mice. The text has this: This is a glucose load test effected according to the method described in Biochem. Biophys. Res. Comm., 281, 1190-1193 (2001), in which the zinc(II) complex of the invention was intraperitoneally administered to KK-A^y mice for 14 days or was not thereto. […]

Regarding “bis(vitamin U)/zinc(II) complex [Zn(Vit-U)Cl2]”, the IC50 in experiment [1] stood at 0.84 mM. In experiment [2], the “effect in glucose load test compared with Zn(2-AM-py)2Cl2 or Zn(Car)2Cl2” value is on record as “somewhat lower” and the “diabetic condition in glucose load test” value is on record as “significantly ameliorated”.
Regarding “bis-(R)-2-(1-aminoethyl)pyridine (=α-pyridylethylamine)/zinc(II) complex [Zn((R)-2-AM-py)2Cl2]”, the IC50 in experiment [1] is 0.4 mM.
On the same count and under the same terms, the figure for “bis(glycyl-N,N′-ethylene-L-alanyl-L-alanine ethyl ester)/zinc(II) complex [Zn(Gly-eAA-OEt)2Cl2]” is 0.85 mM.
Turning to “bis(2-aminomethylpyridine)/zinc(II) complex [Zn(2-AM-py)2Cl2]”, the IC50 in experiment [1] came to 0.85 mM. In addition, the “blood glucose level after 120 minutes” value was “almost the normal level” in experiment [2] (FIG. 19, 13-hour fasting after 14-day intraperitoneal administration, 1 g/kg glucose orally) and “almost the normal level” in experiment [2] (FIG. 20, 13-hour fasting after 14-day administration, 1 g/kg glucose orally). Moreover, the “peak top of blood glucose level after glucose administration” value in experiment [2] (FIG. 19, 13-hour fasting after 14-day intraperitoneal administration, 1 g/kg glucose orally, vs no complex administration) was “low peak top”; in experiment [2] (FIG. 20, 13-hour fasting after 14-day administration, vs oral L-carnitine and acacia solution alone), “low peak top”.
On to “L-carnitine (γ-trimethyl-β-hydroxybutyrobetaine=Car)/zinc(II) complex [Zn(Car)2Cl2]”, for which the IC50 in experiment [1] worked out at 0.8 mM.
As for “bis(quinic acid)/zinc(II) complex [Zn(Qui)2]”, the IC50 in experiment [1] was 0.98 mM. Further, in experiment [2], the “effect in glucose load test compared with Zn(2-AM-py)2Cl2 or Zn(Car)2Cl2” value is “somewhat lower” and the “diabetic condition in glucose load test” value was “significantly ameliorated”.
`C[C@H](O)C(=O)O.C[C@H](O)C(=O)O.[Zn]` [Zn(Lac)2, L-lactic Acid (Lac)/zinc(II) complex]: the IC50 in experiment [1] amounted to 0.81 mM.
For “bis-(S)-2-(1-aminoethyl)pyridine/zinc(II) complex [Zn((S)-2-AM-py)2Cl2]”, the IC50 in experiment [1] amounted to 0.39 mM.
Still for that read-out and setting: the figure for `O=S(=O)([O-])[O-].[O]=[V+2]` [VOSO4, oxovanadium sulfate, reference compound] is 1 mM.
The same measure, in the same setting: next, `O=C1O[C@H]([C@@H](O)CO)C(O)=C1[O-].O=C1O[C@H]([C@@H](O)CO)C(O)=C1[O-].[Zn+2]` [Zn(Vit-C)2, bis(L-ascorbic acid)/zinc(II) complex]: 0.8 mM.

(Values after patent US7226935B2, “Hypoglycemic agent” (Japan Science and Technology Corporation, priority 2001, dated 2007).)
